Results: US5922891A, “2-substituted 1,8-dihydroxy-9(10H)-anthracenone pharmaceuticals” (priority 1997, dated 1999)

How the values were obtained:
5-LO in bovine PMNL = biological target: T1, 5-LO in bovine PMNL (Bos taurus, UniProt F1MQ78); test: Inhibition of 5-lipoxygenase (5-HETE and LTB4 biosynthesis) in Ca-ionophore-stimulated bovine PMNL; assay type: cell-based; conditions: N = 3 or more
T1 construct: The purified PMNLs were suspended at a concentration of; endogenous in cells; host or cells: polymorphonuclear leukocytes isolated from bovine blood
T1 sequence (F1MQ78 1-674): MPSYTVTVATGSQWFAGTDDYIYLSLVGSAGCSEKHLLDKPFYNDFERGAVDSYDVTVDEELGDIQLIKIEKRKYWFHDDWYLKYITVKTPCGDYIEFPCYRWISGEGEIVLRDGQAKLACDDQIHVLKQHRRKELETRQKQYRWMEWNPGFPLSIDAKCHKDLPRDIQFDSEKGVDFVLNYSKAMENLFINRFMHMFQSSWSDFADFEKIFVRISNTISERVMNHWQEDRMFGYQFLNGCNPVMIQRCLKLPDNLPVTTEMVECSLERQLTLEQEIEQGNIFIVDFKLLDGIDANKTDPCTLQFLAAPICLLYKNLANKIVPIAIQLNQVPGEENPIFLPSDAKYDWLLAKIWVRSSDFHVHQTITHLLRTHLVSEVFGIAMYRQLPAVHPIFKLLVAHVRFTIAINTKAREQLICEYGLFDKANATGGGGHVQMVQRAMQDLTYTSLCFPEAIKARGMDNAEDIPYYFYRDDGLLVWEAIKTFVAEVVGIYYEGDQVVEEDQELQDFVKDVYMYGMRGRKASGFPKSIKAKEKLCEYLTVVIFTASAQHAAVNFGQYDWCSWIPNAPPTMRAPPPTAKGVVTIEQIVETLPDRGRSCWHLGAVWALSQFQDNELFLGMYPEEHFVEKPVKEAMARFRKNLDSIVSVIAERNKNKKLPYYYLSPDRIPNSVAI

[1] = Deoxyribose degradation as a measure of hydroxyl radical formation; assay type: biochemical; conditions: 75 μM test compound; controls < 0.1

Row | Structure (SMILES) | IC50 (5-LO in bovine PMNL) [µM] | DD (deoxyribose degradation, malondialdehyde released) [1]
1 | COC(=O)CCCCCc1ccc2c(c1O)C(=O)c1c(O)cccc1C2 [VB, Methyl 6-(9,10-Dihydro-1,8-dihydroxy-9-oxo-2-anthracene) hexaonate] | > 30 | 0.13 ± 0.02 μmol of MDA/mmol
2 | COC(=O)CCCCc1ccc2c(c1O)C(=O)c1c(O)cccc1C2 [IVB, Methyl 5-(9,10-Dihydro-1,8-dihydroxy-9-oxo-2-anthracene)pentanoate] | > 30 | 0.62 ± 0.03 μmol of MDA/mmol
3 | COC(=O)C(c1ccc2c(c1O)C(=O)c1c(O)cccc1C2)C(C)C (centres unmarked) [VIIIB, Methyl 2-(9,10-Dihydro-1,8-dihydroxy-9-oxo-2-anthracene)-3-methylbutanoate] | > 30 | 0.54 ± 0.01 μmol of MDA/mmol
4 | CC(C(=O)N(C)O)c1ccc2c(c1O)C(=O)c1c(O)cccc1C2 (centres unmarked) [VIID, N-Hydroxy-N-methyl-2-(9,10-dihydro-1,8-dihydroxy-9-oxo-2-anthracene)propionamide] | 4 | 1.57 ± 0.16 μmol of MDA/mmol
